The source of these data is ChEMBL document CHEMBL5241086, “Research progress of indole compounds with potential antidiabetic activity” (Eur J Med Chem, 2021).

≈ marks a conversion by molar mass, not a printed value.

What is called IC50 is the concentration that inhibits the measured activity by half. For orientation: inhibition means the percentage by which the read-out fell short of the control. As usually defined, the EC50 is the concentration that produces a half-maximal response.

Experiment [1] deals with T1, Alpha glucosidase (Homo sapiens, UniProt O43451+P10253+P14410+Q2M2H8). The experiment can be described thus: Inhibition of alpha glucosidase (unknown origin) using p-nitrophenyl glucopyranoside as substrate by multimode plate reader analysis. The class given is protein assay.
In the next experiment the test system is Mus musculus. Nature of the experiment: Antidiabetic activity in mouse assessed as reduction in blood glucose level at 100 mg/kg, po bid measured up to 21 days. Format: functional. Further details: scale not given: the % may be the effect or the level left. The settings on record: time <= 21 day.
The species named for the next experiment is Homo sapiens. The experiment can be described thus: Inhibition of beta-glucosidase (unknown origin) assessed as residual activity at 100 uM […] incubated for 1 hr followed by substrate addition and measured after 5 mins by spectrophotometer analysis relative to control. The note with it: time 65.0 hrs.
Experiment [2] deals with Aldo-keto reductase family 1 member B1 (Homo sapiens) (UniProt P15121). The experiment can be described thus: Inhibition of Aldose reductase (unknown origin) using DL-Glyceraldehyde as substrate incubated for 5 mins in presence of NADPH by spectrophotometer analysis.
Experiment [3] concerns the target T1, Alpha glucosidase. Nature of the experiment: Inhibition of alpha glucosidase (unknown origin) using p-nitrophenyl glucopyranoside as substrate by UV Vis- spectrophotometer analysis. Format: protein assay.
The target of experiment [4] is T1, Alpha glucosidase. Nature of the experiment: Inhibition of alpha glucosidase (unknown origin) using p-nitrophenyl glucopyranoside as substrate by UV based microplate reader analysis. Format: protein assay.
The target of experiment [5] is T2, Glucose-dependent insulinotropic receptor (Homo sapiens, UniProt Q8TDV5).
T2 sequence (Q8TDV5 whole entry): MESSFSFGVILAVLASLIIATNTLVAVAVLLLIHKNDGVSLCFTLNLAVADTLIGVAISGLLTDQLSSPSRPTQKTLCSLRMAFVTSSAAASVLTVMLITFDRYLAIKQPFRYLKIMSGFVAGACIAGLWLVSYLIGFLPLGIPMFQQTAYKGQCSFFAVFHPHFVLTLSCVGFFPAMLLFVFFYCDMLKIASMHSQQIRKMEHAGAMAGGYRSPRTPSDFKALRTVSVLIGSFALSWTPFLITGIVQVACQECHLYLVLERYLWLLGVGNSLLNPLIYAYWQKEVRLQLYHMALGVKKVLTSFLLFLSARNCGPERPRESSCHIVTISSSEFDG
Nature of the experiment: Agonist activity at human GPR119 incubated for 2 hrs by luciferase reporter gene assay.

In experiment [6] the target is T1, Alpha glucosidase. The experiment can be described thus: Inhibition of alpha glucosidase (unknown origin) using p-nitrophenyl glucopyranoside as substrate preincubated for 15 mins followed by substrate addition and measured after 30 mins by spectrophotometer analysis. Format: protein assay.

In turn, `Cc1[nH]c2ccccc2c1C1Nc2ccccc2CO1` (configuration not stated) had an IC50 at Alpha glucosidase [1] of 11.5 µM. Regarding `O=C1Nc2ccccc2/C1=N/NC(=S)N/N=C/c1ccc(Cl)cc1`, the Activity in the experiment with Mus musculus came to 29.6%. In the case of `COC(=O)[C@H](Cc1c[nH]c2ccccc12)NC(=O)c1cccc([N+](=O)[O-])c1`, the Activity in the experiment listed under Homo sapiens was 37%. For the compound `Cc1ccc2c(c1)COC(c1c(C)[nH]c3ccccc13)N2` (configuration not stated), the IC50 at Alpha glucosidase [1] was found to be 11.5 µM. As for `O=[N+]([O-])c1cc(-c2cc3ccccc3[nH]2)ccc1Cl`, the inhibition in experiment [2] amounted to 5.3%.

On Alpha glucosidase [3], `Brc1ccc(-c2csc(-n3nc(-c4ccccc4)cc3-c3c[nH]c4ccccc34)n2)cc1` showed an IC50 of 236.1 µg/mL (≈ 475 µM).

On Alpha glucosidase [1], `Cc1ccc2c(c1)COC(c1c(-c3ccccc3)[nH]c3ccccc13)N2` (configuration not stated) showed an IC50 of 11.5 µM.

Compound `Cc1ccnc(NC(=O)CSc2nnc(CCCc3c[nH]c4ccccc34)o2)c1` gave an IC50 against Alpha glucosidase [4] of 9.37 µM. Consider `Clc1ccc2c(c1)NC(c1c[nH]c3ccccc13)OC2` (configuration not stated), for which the IC50 at Alpha glucosidase [1] is 11.5 µM. `CCc1cnc(N2CCC(C(C)COC(=O)N3CCc4cc(S(C)(=O)=O)ccc43)CC2)nc1` (configuration not stated) gave an EC50 in experiment [5] of 0.0039 µM.

With `Clc1ccc2c(c1)COC(c1c(-c3ccccc3)[nH]c3ccccc13)N2` (configuration not stated), the concentration for half-maximal inhibition (IC50) against Alpha glucosidase [1] came out at 11.5 µM. In the case of `O=C(N[C@@H](Cc1c[nH]c2ccccc12)C(=O)O)c1cccc(Cl)c1`, the Activity in the experiment filed under Homo sapiens came out at 49%. The compound `Cc1cccc(NC(=O)CSc2nnc(CCCc3c[nH]c4ccccc34)o2)c1C` had a 50% inhibitory concentration (IC50) at Alpha glucosidase [4] of 9.46 µM. As to `O=Cc1c(-c2ccccc2)[nH]c2ccccc12`, the inhibition in experiment [2] amounted to 7.6%.

Regarding `Nc1ccc(-c2cc3ccccc3[nH]2)cc1`, the inhibition in experiment [2] was found to be 11%. In turn, `O=C1Nc2ccccc2C1(c1cn(Cc2ccccc2F)c2ccccc12)c1cn(Cc2ccccc2F)c2ccccc12` returned an IC50 against Alpha glucosidase [6] of 5.98 µM. The compound `c1ccc2c(c1)COC(c1c[nH]c3ccccc13)N2` (configuration not stated) came in with an IC50 against Alpha glucosidase [1] of 11.5 µM.
